The record followed here is paper PMC6225118 (2018).

In assay [1] the test system is 22AG (DNA, G4) AGGGTTAGGGTTAGGGTTAGGG
The experiment in a line: CD titration. As to conditions: 100 mM K+; 10 mM lithium cacodylate pH 7.2, 20 °C, 5 µM DNA.

Assay [2] has as its system F21T (DNA, G4) GGGTTAGGGTTAGGGTTAGGG
The experiment in a line: FRET melting. As to conditions: 10 mM lithium cacodylate pH 7.2, 0.2 µM DNA, 1 µM compound.

Assay [3] deals with FKit2T (DNA, G4) GGGCGGGCGCGAGGGAGGGG
The experiment in a line: FRET melting. As to conditions: 10 mM K+, 90 mM Li+; 10 mM lithium cacodylate pH 7.2; 0.2 µM DNA, 1 µM compound.

For assay [4], the system named is F21CTAT (DNA, G4) GGGCTAGGGCTAGGGCTAGGG
The experiment in a line: FRET melting. The conditions noted are these: 10 mM K+, 90 mM Li+; 10 mM lithium cacodylate pH 7.2; 0.2 µM DNA, 1 µM compound.

Assay [5] concerns FMycT (DNA, G4) TTGAGGGTGGGTAGGGTGGGTAA
The assay is described as follows: FRET melting. The conditions noted are these: 1 mM K+, 99 mM Li+; 10 mM lithium cacodylate pH 7.2; 0.2 µM DNA, 1 µM compound.

Assay [6] deals with FCEB25wtT (DNA, G4) AAGGGTGGGTGTAAGTGTGGGTGGGT
The experiment in a line: FRET melting. As to conditions: 1 mM K+, 99 mM Li+; 10 mM lithium cacodylate pH 7.2; 0.2 µM DNA, 1 µM compound.

Assay [7] relates to FCEB25L111TT (DNA, G4) AAGGGTGGGTGGGTGGGT
The experiment in a line: FRET melting. As to conditions: 1 mM K+, 99 mM Li+; 10 mM lithium cacodylate pH 7.2; 0.2 µM DNA, 1 µM compound.

Assay [8] deals with FBcl2T (DNA, G4) AGGGGCGGGCGCGGGAGGAAGGGGGCGGGAGCGGGGCTG
The experiment in a line: FRET melting. As to conditions: 10 mM K+, 90 mM Li+; 10 mM lithium cacodylate pH 7.2; 0.2 µM DNA, 1 µM compound.

The subject of assay [9] is 22AG (DNA, G4) AGGGTTAGGGTTAGGGTTAGGG
The experiment in a line: CD titration, 260 nm, Hill1 fit. The conditions noted are these: 100 mM Na+; apparent; 10 mM lithium cacodylate pH 7.2, 20 °C, 5 µM DNA.

Assay [10] has as its system ds26 (DNA, duplex) CAATCGGATCGAATTCGATCCGATTG
The assay is described as follows: G4-FID, thiazole orange displacement. As to conditions: 10 mM lithium cacodylate pH 7.4, 20 °C, 0.25 µM DNA; up to 10 equivalents.

Assay [11] deals with Myc22 (c-myc) (DNA, G4) TGAGGGTGGGTAGGGTGGGTAA
The assay is described as follows: G4-FID, thiazole orange displacement. The conditions noted are these: 10 mM lithium cacodylate pH 7.4, 20 °C; partial displacement, up to 60%.

The test system of assay [12] is 22CTA (DNA, G4) AGGGCTAGGGCTAGGGCTAGGG
The experiment in a line: G4-FID, thiazole orange displacement. The conditions noted are these: 10 mM lithium cacodylate pH 7.4, 20 °C; partial displacement, saturates at 40–60%.

For orientation: ΔTm means the change in melting temperature against a reference sample.

For `Cc1nc(-c2cccc(-c3noc(-c4cccc(-c5nc(-c6cccc(-c7noc(C)n7)n6)no5)c4)n3)n2)no1`, the binding result in [1] is “yes”; in assay [10] it was “no”; in [11], “yes”; in [12] it was “yes”. Moreover, the ΔTm in assay [2] (10 mM K+, 90 mM Li+) is 10.8 ± 0.4 °C; in [2] (100 mM Na+), 16.6 ± 0.8 °C; in assay [3], 5.3 ± 0.4 °C; in assay [4] it was 4.1 ± 0.1 °C; in assay [5] it was 3.9 ± 0.9 °C; in [6] it was 0.9 ± 0.7 °C. Further, the ΔTm was 0.9 ± 0.8 °C in [7] and 2.9 ± 0.7 °C in assay [8]. Further, the Kd in assay [9] turned out to be 3.3 µM.
Take `Cc1nc(-c2cccc(-c3noc(-c4cccc(-c5nc(-c6cccc(-c7noc(C)n7)n6)no5)n4)n3)n2)no1`: the binding entry in assay [1] is on record as “yes”; in assay [10], “no”; in assay [11] it was “yes”; in assay [12] it was “yes”. Besides, the ΔTm was 11.5 ± 0.6 °C in assay [2] (10 mM K+, 90 mM Li+); 13.8 ± 0.4 °C in assay [2] (100 mM Na+); 4.1 ± 0.3 °C in assay [3]; 5.5 ± 0.2 °C in assay [4]. Further, the Kd in assay [9] amounted to 3.6 µM.
